In ChEMBL document CHEMBL4251700, “Novel Staphyloxanthin Inhibitors with Improved Potency against Multidrug Resistant Staphylococcus aureus” (ACS Med Chem Lett, 2018) one finds CC50 data, which are given here for one compound.

The term CC50 denotes the concentration giving 50% cytotoxicity. Read a high CC50 as better tolerance by the cells.

The structures appear in SMILES notation.

A short description of series [1]: Cytotoxicity against human HepG2 cells after 72 hrs by CCK8 assay. The format is cell-based. For orientation: Tetrazolium assays rely on reduction of a dye to a coloured formazan, in cell work by metabolically active cells.
Series [2] is described as follows: Cytotoxicity against HEK293T cells after 72 hrs by CCK8 assay. The format is cell-based, HEK-293T. The note with it: human.

`C[C@@H]1[C@H](O)[C@@H](C)/C=C/C=C/C=C/C=C/C=C/C=C/C=C/[C@H](O[C@@H]2O[C@H](C)[C@@H](O)[C@H](N)[C@@H]2O)C[C@@H]2O[C@](O)(C[C@@H](O)C[C@@H](O)[C@H](O)CC[C@@H](O)C[C@@H](O)CC(=O)O[C@H]1C)C[C@H](O)[C@H]2C(=O)O` [AMPHOTERICIN B]: the CC50 at 72 h was 37.8 µM in series [1] and 27.5 µM in series [2].
